From the supplement of paper PMC11061612

Assays:
Assay in all cases: Bliss excess, mean over the matrix (fraction); higher = more synergy
[1] = system: C-33-A (Cervical Carcinoma)
How it was run: (§1)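 After 24 hours at 37°C and 5% CO2 in 1536-well plates, cells in DMEM/F12 or RPMI plus 10% FBS received two-drug dose matrices for 72 hours. Viability came from CellTiter-Glo 2.0 luminescence and was scaled as inhibition, anchored at 0 by vehicle wells and at 1 by blank wells. Combination Emax is taken as the second-highest inhibition in the matrix, and Bliss excess as the observed combination effect less EA + EB − EA·EB, with EA and EB the single-agent effects.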

[2] = system: COR-L88 (Small Cell Lung Carcinoma)
How it was run: as §1

[3] = system: CPC-N (Small Cell Lung Carcinoma)
How it was run: as §1

[4] = system: DBTRG-05MG (Glioblastoma)
How it was run: as §1

ES6 (Ewing's Sarcoma) = system: ES6 (Ewing's Sarcoma)
How it was run: as §1

[5] = system: LS-1034 (Colorectal Carcinoma)
How it was run: as §1

[6] = system: MDA-MB-415 (Breast Carcinoma)
How it was run: as §1

[7] = system: MOLP-8 (Plasma Cell Myeloma)
How it was run: as §1

[8] = system: MOLT-13 (T-Lymphoblastic Leukemia)
How it was run: as §1

[9] = system: MONO-MAC-6 (Acute Myeloid Leukemia)
How it was run: as §1

[10] = system: MS-1 (Small Cell Lung Carcinoma)
How it was run: as §1

[11] = system: NCI-H1876 (Small Cell Lung Carcinoma)
How it was run: as §1

NCI-H2373 (Mesothelioma) = system: NCI-H2373 (Mesothelioma)
How it was run: as §1

[12] = system: NCI-H3118 (Head and Neck Carcinoma)
How it was run: as §1

[13] = system: OVCAR-3 (Ovarian Carcinoma)
How it was run: as §1

[14] = system: P32-ISH (Burkitt's Lymphoma)
How it was run: as §1

[15] = system: RCC-JW (Kidney Carcinoma)
How it was run: as §1

[16] = system: SUP-M2 (T-Cell Non-Hodgkin's Lymphoma)
How it was run: as §1

[17] = system: SiHa (Cervical Carcinoma)
How it was run: as §1

[18] = system: ZR-75-30 (Breast Carcinoma)
How it was run: as §1

SMILES | Bliss excess [1] | Bliss excess [2] | Bliss excess [3] | Bliss excess [4] | Bliss excess (ES6 (Ewing's Sarcoma)) | Bliss excess [5] | Bliss excess [6] | Bliss excess [7] | Bliss excess [8] | Bliss excess [9] | Bliss excess [10] | Bliss excess [11] | Bliss excess (NCI-H2373 (Mesothelioma)) | Bliss excess [12] | Bliss excess [13] | Bliss excess [14] | Bliss excess [15] | Bliss excess [16] | Bliss excess [17] | Bliss excess [18]
CC1(C)CCC(CN2CCN(c3ccc(C(=O)NS(=O)(=O)c4ccc(NCC5CCOCC5)c([N+](=O)[O-])c4)c(Oc4cnc5[nH]ccc5c4)c3)CC2)=C(c2ccc(Cl)cc2)C1 [Venetoclax] + COc1cc(Nc2ncc3c(n2)-c2ccc(Cl)cc2C(c2c(F)cccc2OC)=NC3)ccc1C(=O)O [Alisertib] (first compound max 1 µM, 7x7, partner max 10 µM) | -0.0225 | 0.11 | -0.047 | -0.0248 | -0.0324 | -0.0252 | -0.0711 | 0.141 | 0.0148 | 0.164 | 0.0861 | 0.0228 | -0.0293 | -0.0188 | -0.0234 | -0.0078 | -0.0415 | -0.0043 | -0.0669 | -0.0603
COc1cccc(OCCCN)c1-c1cc(Nc2cnc(C#N)cn2)n[nH]1 [Prexasertib] + CN(C)CCCOc1ccc(-c2ccc3ncc4c(c3c2)n(C2CCOCC2)c(=O)n4C)cn1 [AZD0156] (first compound max 1 µM, 7x7, partner max 1 µM) | -0.0158 | -0.0137 | 0.0081 | -0.0209 | 0.0091 | -0.0471 | -0.0099 | -0.0203 | 0.0118 | 0.0031 | 0.0205 | -0.044 | 0.0329 | -0.036 | -0.0178 | -0.0238 | 0.0281 | 0.0163 | 0.0003 | -0.0512
CN(CCO)CC[C@H](CSc1ccccc1)Nc1ccc(S(=O)(=O)NC(=O)c2ccc(N3CCC([C@@H](O)c4ccccc4-c4ccc(Cl)cc4)CC3)cc2)cc1S(=O)(=O)C(F)(F)F [AZD4320] + C=CCn1c(=O)c2cnc(Nc3ccc(N4CCN(C)CC4)cc3)nc2n1-c1cccc(C(C)(C)O)n1 [AZD1775] (first compound max 1 µM, partner max 1 µM) | -0.0246 | 0.0578 | 0.0249 | 0.0555 | 0.0586 | 0.0344 | -0.0034 | 0.0782 | 0.064 | 0.117 | 0.112 | 0.0833 | -0.0089 | -0.0226 | 0.0007 | 0.107 | 0.0546 | 0.0681 | -0.0358 | -0.0083
Cn1cnc2c(F)c(Nc3ccc(Br)cc3Cl)c(C(=O)NOCCO)cc21 [Selumetinib] + C=CCn1c(=O)c2cnc(Nc3ccc(N4CCN(C)CC4)cc3)nc2n1-c1cccc(C(C)(C)O)n1 [AZD1775] (first compound max 10 µM, partner max 1 µM) | 0.021 | -0.011 | -0.0858 | 0.0098 | -0.0564 | -0.038 | -0.0754 | 0.0535 | 0.0535 | -0.013 | -0.0347 | -0.021 | -0.101 | 0.0207 | -0.0737 | -0.0186 | -0.0542 | 0.0582 | -0.0422 | -0.0587
COc1cccc(OCCCN)c1-c1cc(Nc2cnc(C#N)cn2)n[nH]1 [Prexasertib] + C[C@@H]1COCCN1C2=NC(=NC(=C2)C3(CC3)[S@](=N)(=O)C)C4=C5C=CNC5=NC=C4 [AZD6738] (first compound max 1 µM, 7x7, partner max 10 µM) | 0.0091 | -0.0483 | -0.013 | -0.0378 | 0.0366 | 0.035 | -0.0055 | -0.0366 | 0.002 | 0.0104 | -0.0136 | 0.0095 | -0.0628 | -0.032 | 0.032 | -0.0127 | 0.0671 | -0.0061 | 0.0191 | -0.0102
C[C@@H](c1ccc2nccn2c1)n1nnc2ncc(-c3cnn(C)c3)nc21 [Savolitinib] + Cc1c2c(nn1C)CSCc1cc(n(C)n1)CSc1cc(c3ccccc3c1)OCCCc1c(C(=O)O)n(C)c3c-2c(Cl)ccc13 [AZD5991] (first compound max 1 µM, 7x7, partner max 1 µM) | -0.0084 | -0.0019 | -0.0179 | -0.0596 | -0.0384 | -0.022 | -0.0462 | -0.0219 | -0.0368 | 0.0346 | -0.0062 | 0.0044 | -0.0618 | -0.0268 | -0.0341 | -0.0162 | -0.0354 | -0.0292 | -0.0335 | -0.0388
Cc1nc(Nc2ncc(C(=O)Nc3c(C)cccc3Cl)s2)cc(N2CCN(CCO)CC2)n1 [Dasatinib] + CC(=O)Nc1cccc(-n2c(=O)n(C3CC3)c(=O)c3c(Nc4ccc(I)cc4F)n(C)c(=O)c(C)c32)c1 [Trametinib] (first compound max 2 µM, 7x7, partner max 1 µM) | 0.0559 | -0.0239 | -0.0405 | 0.0499 | -0.0495 | -0.0302 | -0.0197 | 0.0159 | 0.0463 | -0.0052 | -0.0281 | -0.0548 | -0.0756 | -0.0604 | -0.001 | 0.0545 | 0.0062 | -0.0216 | -0.0082 | -0.0511
CC(=O)Nc1cccc(-n2c(=O)n(C3CC3)c(=O)c3c(Nc4ccc(I)cc4F)n(C)c(=O)c(C)c32)c1 [Trametinib] + Cc1nc(-c2cn3c(n2)-c2ccc(-c4cnn(C(C)(C)C(N)=O)c4)cc2OCC3)n(C(C)C)n1 [Taselisib] (first compound max 1 µM, 7x7, partner max 10 µM) | 0.0744 | 0.0085 | 0.0985 | 0.0957 | -0.0292 | 0.0234 | -0.0162 | 0.186 | 0.153 | 0.244 | 0.0912 | 0.132 | 0.0818 | 0.13 | 0.037 | 0.0479 | 0.0114 | 0.106 | 0.0162 | 0.0155
Cc1c2c(nn1C)CSCc1cc(n(C)n1)CSc1cc(c3ccccc3c1)OCCCc1c(C(=O)O)n(C)c3c-2c(Cl)ccc13 [AZD5991] + CCN(CCO)CCCOc1ccc2c(Nc3cc(CC(=O)Nc4cccc(F)c4)[nH]n3)ncnc2c1 [AZD2811] (first compound max 1 µM, 7x7, partner max 1 µM) | -0.028 | 0.0453 | 0.0311 | 0.019 | 0.0337 | -0.0173 | -0.108 | 0.0543 | 0.0028 | 0.0258 | 0.0123 | 0.058 | -0.0088 | 0.0796 | 0.0647 | -0.0194 | 0.0024 | 0.0104 | 0.0009 | 0.0825
Cc1cc2ncnn2cc1Nc1ncc2c(n1)n(C1CCOCC1)c(=O)n2C [AZD7648] + C[C@@H]1COCCN1C2=NC(=NC(=C2)C3(CC3)[S@](=N)(=O)C)C4=C5C=CNC5=NC=C4 [AZD6738] (first compound max 10 µM, 7x7, partner max 10 µM) | 0.007 | 0.0291 | -0.0013 | -0.0174 | -0.0082 | 0.0327 | 0.0354 | 0.0234 | -0.0154 | -0.0147 | -0.0266 | 0.0004 | -0.102 | 0.0555 | 0.0009 | -0.0029 | 0.0176 | 0.0562 | 0.0466 | -0.0224
CN(CCO)CC[C@H](CSc1ccccc1)Nc1ccc(S(=O)(=O)NC(=O)c2ccc(N3CCC([C@@H](O)c4ccccc4-c4ccc(Cl)cc4)CC3)cc2)cc1S(=O)(=O)C(F)(F)F [AZD4320] + C[C@@H](Nc1cc(F)cc(F)c1)c1cc(C(=O)N(C)C)cc2c(=O)cc(N3CCOCC3)oc12 [AZD8186] (first compound max 1 µM, 7x7, partner max 3 µM) | -0.0542 | 0.008 | 0.0273 | 0.02 | 0.0029 | -0.0026 | 0.0439 | 0.0576 | 0.0093 | 0.0342 | 0.0115 | 0.0682 | -0.0561 | 0.0019 | -0.0135 | 0.0526 | 0.0478 | 0.0539 | -0.0165 | -0.0251
COc1cccc(OCCCN)c1-c1cc(Nc2cnc(C#N)cn2)n[nH]1 [Prexasertib] + C=CCn1c(=O)c2cnc(Nc3ccc(N4CCN(C)CC4)cc3)nc2n1-c1cccc(C(C)(C)O)n1 [AZD1775] (first compound max 1 µM, partner max 1 µM) | 0.0983 | 0.0538 | 0.0431 | -0.0008 | 0.0362 | 0.0999 | 0.0729 | 0.0398 | 0.0981 | 0.168 | 0.0972 | 0.0393 | 0.0601 | 0.0483 | 0.16 | 0.0657 | 0.169 | 0.102 | 0.0666 | -0.0353
